Results: patent publication US8779197B2, “Aryl amides useful as inhibitors of voltage-gated sodium channels” (Vertex Pharmaceuticals Incorporated, priority 2007, dated 2014)
Where two headings read alike, the source gives them in different places.

Columns and labels:
NaV1.3 [1] = target: T1, NaV1.3 (Homo sapiens, UniProt Q9NY46); assay: Activity against NaV 1.3 channel (optical membrane potential assay); type: cell-based; parameters: expressed in transfected cells; host or cells: HEK293
Protocol: (§1) Compounds of the invention are useful as antagonists of voltage-gated sodium ion channels. Antagonist properties of test compounds were assessed as follows. Cells expressing the NaV of interest were placed into microtiter plates. After an incubation period, the cells were stained with fluorescent dyes sensitive to the transmembrane potential. The test compounds were added to the microtiter plate. The cells were stimulated with either a chemical or electrical means to evoke a NaV dependent membrane potential change from unblocked channels, which was detected and measured with trans-membrane potential-sensitive dyes. Antagonists were detected as a decreased membrane potential response to the stimulus. The optical membrane potential assay utilized voltage-sensitive FRET sensors described by Gonzalez and Tsien (See, Gonzalez, J. E. and R. Y. Tsien (1995) “Voltage sensing by fluorescence resonance energy transfer in single cells” Biophys J 69(4): 1272-80, and Gonzalez, J. E. and R. Y. Tsien (1997) “Improved indicators of cell membrane potential that use fluorescence resonance energy transfer” Chem Biol 4(4): 269-77) in combination with instrumentation for measuring fluorescence changes such as the Voltage/Ion Probe Reader (VIPR®) (See, Gonzalez, J. E., K. Oades, et al. (1999) “Cell-based assays and instrumentation for screening ion-channel targets” Drug Discov Today 4(9): 431-439).
(§2) C) VIPR® Optical Membrane Potential Assay Method with Electrical Stimulation
(§3) The following is an example of how NaV1.3 inhibition activity is measured using the optical membrane potential method#2. Other subtypes are performed in an analogous mode in a cell line expressing the NaV of interest.
HEK293 cells stably expressing NaV1.3 are plated into 96-well microtiter plates. After an appropriate incubation period, the cells are stained with the voltage sensitive dyes CC2-DMPE/DiSBAC2(3) as follows.
(§4) 10 mM CC2-DMPE is vortexed with an equivalent volume of 10% pluronic, followed by vortexing in required amount of HBSS containing 10 mM HEPES. Each cell plate will require 5 mL of 2×CC2-DMPE. 50 µL of 2×CC2-DMPE is to wells containing washed cells, resulting in a 10 μM final staining concentration. The cells are stained for 30 minutes in the dark at RT.
(§5) The required amount of 10 mM DISBAC2(3) is added to a 50 ml conical tube and mixed with 1 μL 10% pluronic for each mL of solution to be made and vortexed together. Then HBSS/HEPES is added to make up 2× solution. Finally, the ABSC1 is added.
(§6) The 2×DiSBAC2(3) solution can be used to solvate compound plates. Note that compound plates are made at 2× drug concentration. Wash stained plate again, leaving residual volume of 50 μL. Add 50 uL/well of the 2×DiSBAC2(3) w/ABSC1. Stain for 30 minutes in the dark at RT.
(§7) The electrical stimulation instrument and methods of use are described in ION Channel Assay Methods PCT/US01/21652, herein incorporated by reference. The instrument comprises a microtiter plate handler, an optical system for exciting the coumarin dye while simultaneously recording the coumarin and oxonol emissions, a waveform generator, a current- or voltage-controlled amplifier, and a device for inserting electrodes in well. Under integrated computer control, this instrument passes user-programmed electrical stimulus protocols to cells within the wells of the microtiter plate.
(§8) Assay Protocol • 1. Insert or use electrodes into each well to be assayed. • 2. Use the current-controlled amplifier to deliver stimulation wave pulses for 3 s. Two seconds of pre-stimulus recording are performed to obtain the un-stimulated intensities. Five seconds of post-stimulation recording are performed to examine the relaxation to the resting state.
Data are analyzed and reported as normalized ratios of background-subtracted emission intensities measured in the 460 nm and 580 nm channels. Background intensities are then subtracted from each assay channel. […]
Target sequence in this assay (Q9NY46 whole entry): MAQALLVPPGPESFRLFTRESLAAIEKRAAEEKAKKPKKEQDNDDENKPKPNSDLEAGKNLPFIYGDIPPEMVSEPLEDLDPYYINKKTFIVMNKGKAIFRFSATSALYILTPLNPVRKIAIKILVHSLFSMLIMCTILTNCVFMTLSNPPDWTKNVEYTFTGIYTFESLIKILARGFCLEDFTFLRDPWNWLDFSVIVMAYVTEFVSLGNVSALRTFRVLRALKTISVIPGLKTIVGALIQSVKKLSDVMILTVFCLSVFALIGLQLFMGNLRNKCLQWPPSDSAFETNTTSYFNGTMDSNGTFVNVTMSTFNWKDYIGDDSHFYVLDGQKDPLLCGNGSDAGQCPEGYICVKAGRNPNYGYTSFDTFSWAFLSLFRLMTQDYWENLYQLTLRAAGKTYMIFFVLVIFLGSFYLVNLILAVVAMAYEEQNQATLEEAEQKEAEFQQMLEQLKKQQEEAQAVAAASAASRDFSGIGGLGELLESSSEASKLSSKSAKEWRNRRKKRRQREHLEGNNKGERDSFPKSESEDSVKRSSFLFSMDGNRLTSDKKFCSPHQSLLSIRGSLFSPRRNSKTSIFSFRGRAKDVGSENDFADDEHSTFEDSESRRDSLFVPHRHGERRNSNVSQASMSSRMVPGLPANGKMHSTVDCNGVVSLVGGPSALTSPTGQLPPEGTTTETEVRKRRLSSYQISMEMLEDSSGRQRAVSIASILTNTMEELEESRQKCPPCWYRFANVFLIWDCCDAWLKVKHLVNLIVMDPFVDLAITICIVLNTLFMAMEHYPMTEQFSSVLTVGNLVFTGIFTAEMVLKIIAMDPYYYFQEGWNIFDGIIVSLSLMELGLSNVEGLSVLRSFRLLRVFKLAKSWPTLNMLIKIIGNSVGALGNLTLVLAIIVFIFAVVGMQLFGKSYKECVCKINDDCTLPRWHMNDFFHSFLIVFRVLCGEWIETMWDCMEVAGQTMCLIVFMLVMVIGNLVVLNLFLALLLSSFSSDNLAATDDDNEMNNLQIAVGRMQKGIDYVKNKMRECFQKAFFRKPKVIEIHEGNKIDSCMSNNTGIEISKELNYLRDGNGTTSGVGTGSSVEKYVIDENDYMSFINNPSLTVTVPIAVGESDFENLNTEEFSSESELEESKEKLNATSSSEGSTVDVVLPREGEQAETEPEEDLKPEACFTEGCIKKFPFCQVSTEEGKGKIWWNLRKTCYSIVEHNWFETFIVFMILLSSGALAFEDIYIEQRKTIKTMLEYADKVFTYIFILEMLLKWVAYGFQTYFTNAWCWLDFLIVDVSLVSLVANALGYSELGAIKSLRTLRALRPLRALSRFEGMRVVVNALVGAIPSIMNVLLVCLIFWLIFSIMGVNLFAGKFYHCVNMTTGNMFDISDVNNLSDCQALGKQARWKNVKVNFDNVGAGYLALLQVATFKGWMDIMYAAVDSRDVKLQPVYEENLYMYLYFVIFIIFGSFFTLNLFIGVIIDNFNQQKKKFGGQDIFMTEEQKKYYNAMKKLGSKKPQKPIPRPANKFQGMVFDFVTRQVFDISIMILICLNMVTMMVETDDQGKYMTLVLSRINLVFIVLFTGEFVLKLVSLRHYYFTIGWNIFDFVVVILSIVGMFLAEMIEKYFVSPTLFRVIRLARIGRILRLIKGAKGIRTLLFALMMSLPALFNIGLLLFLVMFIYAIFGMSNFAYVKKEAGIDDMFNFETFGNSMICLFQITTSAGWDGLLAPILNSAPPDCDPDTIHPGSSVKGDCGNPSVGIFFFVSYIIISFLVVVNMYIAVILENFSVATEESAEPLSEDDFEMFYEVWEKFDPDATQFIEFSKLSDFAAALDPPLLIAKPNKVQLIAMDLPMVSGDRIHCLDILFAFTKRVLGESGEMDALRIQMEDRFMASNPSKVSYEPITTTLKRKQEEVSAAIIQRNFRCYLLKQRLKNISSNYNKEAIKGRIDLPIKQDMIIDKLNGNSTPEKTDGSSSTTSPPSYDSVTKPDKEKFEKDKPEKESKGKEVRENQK

NaV1.8 = NaV1.8 (Homo sapiens, UniProt Q9Y5Y9); assay: Activity against NaV 1.8 channel (optical membrane potential assay); type: cell-based
Protocol: as §1, §2, §3, §4, §5, §6, §7, §8
(§9) Data are analyzed and reported as normalized ratios of background-subtracted emission intensities measured in the 460 nm and 580 nm channels. Background intensities are then subtracted from each assay channel. Background intensities are obtained by measuring the emission intensities during the same time periods from identically treated assay wells in which there are no cells. The response as a function of time is then reported as the ratios obtained using the following formula: […]

NaV 1.7 channel = NaV 1.7 channel (Homo sapiens, UniProt Q15858); assay: Activity against NaV 1.7 channel (optical membrane potential assay); type: cell-based
Chain of NaV 1.7 channel (Q15858 whole entry): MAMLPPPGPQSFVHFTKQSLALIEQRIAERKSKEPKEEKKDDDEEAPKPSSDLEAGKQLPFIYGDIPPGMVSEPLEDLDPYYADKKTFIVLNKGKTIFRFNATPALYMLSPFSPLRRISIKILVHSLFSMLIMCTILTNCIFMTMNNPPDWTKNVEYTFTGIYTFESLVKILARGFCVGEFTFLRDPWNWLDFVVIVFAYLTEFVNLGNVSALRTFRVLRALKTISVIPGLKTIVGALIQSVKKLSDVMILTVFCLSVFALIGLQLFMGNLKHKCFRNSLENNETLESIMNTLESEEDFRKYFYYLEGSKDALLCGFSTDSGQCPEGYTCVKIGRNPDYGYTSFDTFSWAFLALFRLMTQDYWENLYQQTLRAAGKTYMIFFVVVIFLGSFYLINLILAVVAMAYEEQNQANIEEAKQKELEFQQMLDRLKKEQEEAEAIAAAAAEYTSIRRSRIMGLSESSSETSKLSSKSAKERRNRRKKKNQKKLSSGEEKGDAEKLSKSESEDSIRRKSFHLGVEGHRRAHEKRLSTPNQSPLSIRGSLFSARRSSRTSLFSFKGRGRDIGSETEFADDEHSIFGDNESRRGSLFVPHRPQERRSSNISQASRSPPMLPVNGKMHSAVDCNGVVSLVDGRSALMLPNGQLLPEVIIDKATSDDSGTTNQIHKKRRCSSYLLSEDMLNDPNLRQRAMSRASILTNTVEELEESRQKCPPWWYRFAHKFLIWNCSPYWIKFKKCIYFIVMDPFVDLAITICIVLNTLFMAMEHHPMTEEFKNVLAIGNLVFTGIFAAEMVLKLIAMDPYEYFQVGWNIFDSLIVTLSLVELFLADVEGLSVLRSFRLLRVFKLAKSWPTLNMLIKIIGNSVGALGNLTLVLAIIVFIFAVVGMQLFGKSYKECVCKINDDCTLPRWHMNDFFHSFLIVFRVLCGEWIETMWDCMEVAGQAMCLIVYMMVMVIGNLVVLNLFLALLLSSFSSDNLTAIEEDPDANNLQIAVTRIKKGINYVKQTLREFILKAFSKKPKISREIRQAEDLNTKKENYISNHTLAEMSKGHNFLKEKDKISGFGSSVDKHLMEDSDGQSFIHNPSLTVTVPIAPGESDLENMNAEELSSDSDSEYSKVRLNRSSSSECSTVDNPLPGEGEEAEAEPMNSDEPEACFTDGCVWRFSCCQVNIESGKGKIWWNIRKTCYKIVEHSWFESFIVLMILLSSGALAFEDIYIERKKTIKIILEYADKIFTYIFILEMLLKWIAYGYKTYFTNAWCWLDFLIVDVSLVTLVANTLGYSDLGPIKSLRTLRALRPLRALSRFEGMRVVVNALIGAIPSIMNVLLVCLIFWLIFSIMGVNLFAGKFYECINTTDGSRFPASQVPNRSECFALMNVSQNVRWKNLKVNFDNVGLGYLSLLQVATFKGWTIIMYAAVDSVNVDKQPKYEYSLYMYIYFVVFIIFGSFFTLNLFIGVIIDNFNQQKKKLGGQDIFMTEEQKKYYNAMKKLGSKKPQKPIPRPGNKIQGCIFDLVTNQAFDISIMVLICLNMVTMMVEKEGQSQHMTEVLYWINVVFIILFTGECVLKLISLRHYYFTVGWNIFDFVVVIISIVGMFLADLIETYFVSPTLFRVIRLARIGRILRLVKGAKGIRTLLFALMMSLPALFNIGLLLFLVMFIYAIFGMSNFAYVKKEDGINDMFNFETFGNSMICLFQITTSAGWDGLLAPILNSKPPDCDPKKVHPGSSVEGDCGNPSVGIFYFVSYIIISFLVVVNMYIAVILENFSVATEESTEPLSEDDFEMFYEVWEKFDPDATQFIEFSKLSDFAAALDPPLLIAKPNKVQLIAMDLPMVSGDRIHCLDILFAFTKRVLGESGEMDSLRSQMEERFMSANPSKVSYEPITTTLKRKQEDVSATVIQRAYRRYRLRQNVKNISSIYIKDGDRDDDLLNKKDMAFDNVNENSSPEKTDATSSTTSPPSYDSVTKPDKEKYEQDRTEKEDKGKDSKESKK
Protocol: as §1, §2, §3, §4, §5, §6, §7, §8, §9

NaV1.3 [2] = target: T1, NaV1.3; conditions: read-out: TTX IC50; cited from earlier work
Target sequence in this assay (Q9NY46 whole entry, looked up): as the sequence (Q9NY46 whole entry) above

NaV1.6 = NaV1.6 (Homo sapiens, UniProt Q9UQD0); conditions: read-out: TTX IC50; cited from earlier work
NaV1.9 = NaV1.9 (Homo sapiens, UniProt Q9UI33); conditions: read-out: TTX IC50; cited from earlier work
NaV1.1 = NaV1.1 (Homo sapiens, UniProt P35498); conditions: read-out: TTX IC50; cited from earlier work
NaV1.2 = NaV1.2 (Homo sapiens, UniProt Q99250); conditions: read-out: TTX IC50; cited from earlier work

`NC(=O)c1cccc(NC(=O)c2ccccc2Cc2ccccc2)c1` [Compound 1] gave an IC50 (NaV1.3 [1]) of over 20 µM.
Compound `NC(=O)c1cccc(NC(=O)c2ccccc2Nc2cccc(F)c2)c1` [Compound 2] has an IC50 (NaV1.3 [1]) of over 20 µM.
With `NC(=O)c1cccc(NC(=O)c2ccccc2Oc2ccc(F)cc2)c1` [Compound 3, N-(3-carbamoylphenyl)-2-(4-fluorophenoxy)benzamide] the IC50 (NaV1.8) was under 2 µM and the IC50 (NaV1.3 [1]) was 10 to 20 µM.
In the case of `NC(=O)c1cccc(NC(=O)c2ccccc2Oc2ccc(Br)cc2)c1` [Compound 4], the IC50 (NaV1.8) is reported as under 2 µM and the IC50 (NaV1.3 [1]) is reported as 2 to 10 µM.
Work on `NC(=O)c1cccc(NC(=O)c2ccccc2Oc2ccc(C(F)(F)F)cc2)c1` [Compound 5] yielded an IC50 (NaV1.3 [1]) of 10 to 20 µM.
In the case of `Cc1ncccc1Oc1cc(C(C)(C)C)ccc1C(=O)Nc1cccc(C(N)=O)c1` [Compound 6], the IC50 (NaV 1.7 channel) is reported as over 20 µM, the IC50 (NaV1.8) is reported as under 2 µM and the IC50 (NaV1.3 [1]) is reported as over 20 µM.
`CC(C)(C)c1ccc(C(=O)Nc2cccc(C(N)=O)c2)c(Oc2ccc(C(F)(F)F)nc2)c1` [Compound 7] showed an IC50 (NaV 1.7 channel) of 2 to 10 µM, an IC50 (NaV1.8) of under 2 µM and an IC50 (NaV1.3 [1]) of 10 to 20 µM.
In the case of `CC(C)(C)c1ccc(C(=O)Nc2cccc(C(N)=O)c2)c(Oc2ccc(F)cc2Cl)c1` [Compound 8], the IC50 (NaV 1.7 channel) is reported as 2 to 10 µM, the IC50 (NaV1.8) is reported as under 2 µM and the IC50 (NaV1.3 [1]) is reported as 10 to 20 µM.
For `CC(C)(C)c1ccc(C(=O)Nc2cccc(S(C)(=O)=O)c2)c(Oc2ccc(F)cc2Cl)c1` [Compound 9], the IC50 (NaV 1.7 channel) was 2 to 10 µM, the IC50 (NaV1.8) was under 2 µM and the IC50 (NaV1.3 [1]) was 10 to 20 µM.
With `CC(C)(C)c1ccc(C(=O)Nc2cccc(NS(C)(=O)=O)c2)c(Oc2ccc(F)cc2Cl)c1` [Compound 10] the IC50 (NaV 1.7 channel) was 2 to 10 µM, the IC50 (NaV1.8) was 2 to 10 µM and the IC50 (NaV1.3 [1]) was 10 to 20 µM.
Work on `CNC(=O)c1cccc(NC(=O)c2ccc(C(C)(C)C)cc2Oc2ccc(F)cc2Cl)c1` [Compound 11] yielded an IC50 (NaV 1.7 channel) of 2 to 10 µM, an IC50 (NaV1.8) of under 2 µM and an IC50 (NaV1.3 [1]) of 2 to 10 µM.
`Cc1ncccc1Oc1cc(C(C)(C)C)ccc1C(=O)Nc1cccc(S(C)(=O)=O)c1` [Compound 12] gave an IC50 (NaV 1.7 channel) of 2 to 10 µM, an IC50 (NaV1.8) of under 2 µM and an IC50 (NaV1.3 [1]) of over 20 µM.
`CC(C)(C)c1ccc(C(=O)Nc2cccc(S(C)(=O)=O)c2)c(Oc2ncccc2C#N)c1` [Compound 14] gave an IC50 (NaV 1.7 channel) of under 2 µM, an IC50 (NaV1.8) of under 2 µM and an IC50 (NaV1.3 [1]) of 2 to 10 µM.
Work on `CC(C)(C)c1ccc(C(=O)Nc2cccc(S(C)(=O)=O)c2)c(Oc2cnccc2C(F)(F)F)c1` [Compound 15] yielded an IC50 (NaV 1.7 channel) of 2 to 10 µM, an IC50 (NaV1.8) of under 2 µM and an IC50 (NaV1.3 [1]) of 2 to 10 µM.
`CC(C)(C)c1ccc(C(=O)Nc2cccc(S(C)(=O)=O)c2)c(Oc2cccnc2C(F)(F)F)c1` [Compound 16] gave an IC50 (NaV 1.7 channel) of 2 to 10 µM, an IC50 (NaV1.8) of under 2 µM and an IC50 (NaV1.3 [1]) of 10 to 20 µM.
Work on `CC(C)(C)c1ccc(C(=O)Nc2cccc(S(C)(=O)=O)c2)c(Oc2cccc(C(F)(F)F)n2)c1` [Compound 17] yielded an IC50 (NaV 1.7 channel) of 10 to 20 µM, an IC50 (NaV1.8) of under 2 µM and an IC50 (NaV1.3 [1]) of 10 to 20 µM.
For `CC(C)(C)c1ccc(C(=O)Nc2cccc(S(C)(=O)=O)c2)c(Oc2ncccc2C(F)(F)F)c1` [Compound 18], the IC50 (NaV 1.7 channel) was 2 to 10 µM, the IC50 (NaV1.8) was under 2 µM and the IC50 (NaV1.3 [1]) was 10 to 20 µM.
`CN(C(=O)c1ccc(C(C)(C)C)cc1Oc1ccc(F)cc1Cl)c1cccc(S(C)(=O)=O)c1` [Compound 19, 4-tert-Butyl-2-(2-chloro-4-fluorophenoxy)-N-methyl-N-(3-(methylsulfonyl)phenyl)benzamide] gave an IC50 (NaV 1.7 channel) of 2 to 10 µM, an IC50 (NaV1.8) of 2 to 10 µM and an IC50 (NaV1.3 [1]) of 2 to 10 µM.
In the case of `NC1=N[C@H](O)[C@H]2[C@H]3O[C@]4(O)O[C@@H]([C@@H](O)[C@@]2(N1)[C@@H]4O)[C@]3(O)CO` [TTX, tetrodotoxin], the IC50 (NaV1.3 [2]) is listed as 0.015 µM, the IC50 (NaV1.6) is listed as 0.006 µM and the IC50 (NaV1.9) is listed as 1 µM. For the same compound, the IC50 (NaV1.1) was 0.01 µM and the IC50 (NaV1.2) was 0.01 µM.
